Broadly, the EC50 is the concentration giving half of the maximal effect.

This is an account of results in patent US12485123B2, “1H-pyrazolo[4,3-d]pyrimidine compounds as toll-like receptor 7 (TLR7) agonists” (BRISTOL-MYERS SQUIBB COMPANY, priority 2020, dated 2025).

In one assay the test system is CD69. The assay is described as follows: Induction of CD69 in human whole blood. Format: cell-based. Conditions: 17 hrs incubation, CD69 surface staining, 100% set to 1 uM of resiquimod, average where assay repeated, read-out: hWB CD69 EC50. As for the experimental part: Induction of Type I Interferon Genes (MX-1) and CD69 in Human Blood
The induction of Type I interferon (IFN) MX-1 genes and the B-cell activation marker CD69 are downstream events that occur upon activation of the TLR7 pathway. The following is a human whole blood assay that measures their induction in response to a TLR7 agonist.
Heparinized human whole blood was harvested from human subjects and treated with test TLR7 agonist compounds at 1 mM. The blood was diluted with RPMI 1640 media and Echo was used to predot 10 nL per well giving a final concentration of 1 uM (10 nL in 10 uL of blood). After mixing on a shaker for 30 sec, the plates were covered and placed in a 37° C. chamber for o/n=17 hrs. Fixing/lysis buffer was prepared (5×→1× in H2O, warm at 37° C.; Cat #BD 558049) and kept the perm buffer (on ice) for later use.
For surface markers staining (CD69): prepared surface Abs: 0.045 ul hCD14-FITC (ThermoFisher Cat #MHCD1401)+0.6 ul hCD19-ef450 (ThermoFisher Cat #48-0198-42)+1.5 ul hCD69-PE (cat #BD555531)+0.855 ul FACS buffer. Added 3 ul/well, spin 1000 rpm for 1 min and mixed on shaker for 30 sec, put on ice for 30 min. Stop stimulation after 30 minutes with 70 uL of prewarmed 1× fix/lysis buffer and use Feliex mate to resuspend (15 times, change tips for each plate) and incubate at 37 C for 10 minutes.
Centrifuge at 2000 rpm for 5 minutes aspirate with HCS plate washer, mix on shaker for 30 sec and then wash with 70 uL in dPBS and pelleted 2×s (2000 rpm for 5 min) and 50 ul wash in FACS buffer pelleted 1×s (2000 rpm for 5 min). Mix on shaker for 30 sec. For Intracellular markers staining (MX-1): Add 50 ul of BD Perm buffer III and mix on shaker for 30 sec. Incubate on ice for 30 minutes (in the dark). Wash with 50 uL of FACS buffer 2× (spin @2300 rpm×5 min after perm) followed by mixing on shaker for 30 sec. Resuspended in 20 ul of FACS buffer containing MX1 antibody ( )(4812)-Alexa 647: Novus Biologicals #NBP2-43704AF647) 20 ul FACS bf+0.8 ul hIgG+0.04 ul MX-1. Spin 1000 rpm for 1 min, mix on shaker for 30 se and the samples were incubated at RT in the dark for 45 minutes followed by washing 2×FACS buffer (spin @2300 rpm×5 min after perm). Resuspend 20 ul (35 uL total per well) of FACS buffer and cover with foil and place in 4° C. to read the following day. Plates were read on iQuePlus. The results were loaded into toolset and […] curves are generated in curve master. The y-axis 100% is set to 1 uM of resiquimod.

The target in another assay is T1, human TLR7 (Homo sapiens, UniProt Q9NYK1).
T1 construct: host or cells: HEK-Blue TLR7 cells (engineered human embryonic kidney cells)
T1 sequence (Q9NYK1 27-1049): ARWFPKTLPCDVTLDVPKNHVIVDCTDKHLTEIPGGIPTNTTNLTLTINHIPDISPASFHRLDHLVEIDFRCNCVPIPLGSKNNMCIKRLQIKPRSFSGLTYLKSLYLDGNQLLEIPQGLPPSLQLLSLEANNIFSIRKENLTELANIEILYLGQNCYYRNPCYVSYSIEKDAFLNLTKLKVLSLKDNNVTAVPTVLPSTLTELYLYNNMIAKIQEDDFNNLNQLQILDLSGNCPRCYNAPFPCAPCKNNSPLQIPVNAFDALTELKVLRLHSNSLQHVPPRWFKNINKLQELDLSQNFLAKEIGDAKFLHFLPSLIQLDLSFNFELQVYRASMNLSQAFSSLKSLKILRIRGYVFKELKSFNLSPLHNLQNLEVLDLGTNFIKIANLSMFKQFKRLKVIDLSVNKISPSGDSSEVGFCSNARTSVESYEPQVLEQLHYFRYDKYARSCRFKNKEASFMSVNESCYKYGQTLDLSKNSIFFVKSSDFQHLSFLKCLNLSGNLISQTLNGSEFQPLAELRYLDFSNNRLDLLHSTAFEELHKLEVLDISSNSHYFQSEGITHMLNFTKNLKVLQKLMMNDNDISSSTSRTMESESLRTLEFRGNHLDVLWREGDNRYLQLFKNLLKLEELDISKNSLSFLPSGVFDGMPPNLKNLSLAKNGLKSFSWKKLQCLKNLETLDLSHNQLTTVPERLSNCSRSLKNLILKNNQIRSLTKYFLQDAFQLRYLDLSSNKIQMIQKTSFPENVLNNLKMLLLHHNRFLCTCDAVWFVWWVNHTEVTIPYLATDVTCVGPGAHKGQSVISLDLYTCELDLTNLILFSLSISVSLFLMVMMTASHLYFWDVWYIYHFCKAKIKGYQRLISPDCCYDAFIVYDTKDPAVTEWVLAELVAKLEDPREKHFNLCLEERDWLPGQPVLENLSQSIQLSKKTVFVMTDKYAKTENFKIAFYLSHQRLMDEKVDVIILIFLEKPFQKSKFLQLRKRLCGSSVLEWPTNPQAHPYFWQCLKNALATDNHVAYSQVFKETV
The assay is described as follows: Human TLR7 agonist activity reporter assay (HEK-Blue TLR7 cells, SEAP reporter). Conditions: human TLR7 (hTLR7) reporter assay, SEAP readout after 18 h, average where assay repeated, read-out: TLR7 Agonism EC50. Format: cell-based. As for the experimental part: Human TLR7 Agonist Activity Assay
This procedure describes a method for assaying human TLR7 (hTLR7) agonist activity of the compounds disclosed in this specification.
HEK-Blue™ TLR7 cells were added to each well of a 384-well tissue-culture plate (15,000 cells per well) and incubated 16-18 h at 37° C., 5% CO2. Compounds (100 nl) were dispensed into wells containing the HEK-Blue™ TLR cells and the treated cells were incubated at 37° C., 5% CO2. After 18 h treatment ten microliters of freshly-prepared Quanti-Blue™ reagent (Invivogen) was added to each well, incubated for 30 min (37° C., 5% CO2) and SEAP levels measured using an Envision plate reader (OD=620 nm).
For orientation: Reporter assays use an easily measured gene product as a stand-in for the process of interest.

`CCC[C@@H](CCO)Nc1nc(N)nc2cnn(Cc3ccc(C(=O)N4CC5(COC5)C4)c4cccnc34)c12` [Compound 127, (3S)-3-({5-amino-1-[(5-{2-oxa-6-azaspiro[3.3]heptane-6-carbonyl}quinolin-8-yl)methyl]-1H-pyrazolo[4,3-d]pyrimidin-7-yl}amino)hexan-1-ol]: the EC50 worked out at 91.9 nM in the assay on CD69 and 54.8 nM at human TLR7. For the molecule `CCC[C@@H](CCO)Nc1nc(N)nc2cnn(Cc3ccc(CNC4CCOCC4)c4cccnc34)c12` [Compound 104, (3S)-3-({5-amino-1-[(5-{[(oxan-4-yl)amino]methyl}quinolin-8-yl)methyl]-1H-pyrazolo[4,3-d]pyrimidin-7-yl}amino)hexan-1-ol], the EC50 with CD69 was determined as 13.4 nM. On the same count and under the same terms, in the case of `CCC[C@@H](CCO)Nc1nc(N)nc2cnn(Cc3ccc(C(=O)N(C)C4CCOCC4)c4cccnc34)c12` [Compound 129, 8-[(5-amino-7-{[(3S)-1-hydroxyhexan-3-yl]amino}-1H-pyrazolo[4,3-d]pyrimidin-1-yl)methyl]-N-methyl-N-(oxan-4-yl)quinoline-5-carboxamide] it was 83.3 nM. For the molecule `CCC[C@@H](CCO)Nc1nc(N)nc2c(C)nn(Cc3ccc(C(=O)N4CCN(CCO)CC4)c4cccnc34)c12` [Compound 120, (3S)-3-{[5-amino-1-({5-[4-(2-hydroxyethyl)piperazine-1-carbonyl]quinolin-8-yl}methyl)-3-methyl-1H-pyrazolo[4,3-d]pyrimidin-7-yl]amino}hexan-1-ol], the EC50 with CD69 amounted to 1000 nM; on human TLR7 it was 882 nM. Regarding `CCC[C@@H](CCO)Nc1nc(N)nc2cnn(Cc3ccc(C(=O)N4CC(CCO)C4)c4cccnc34)c12` [Compound 132, (3S)-3-{[5-amino-1-({5-[3-(2-hydroxyethyl)azetidine-1-carbonyl]quinolin-8-yl}methyl)-1H-pyrazolo[4,3-d]pyrimidin-7-yl]amino}hexan-1-ol], the half-maximal effective concentration (EC50) with CD69 turned out to be 102 nM.

Take `Nc1nc(NCC2CC3(CC3)C2)c2c(cnn2Cc2ccc(C(=O)N3CCNC(=O)C3)c3cccnc23)n1` [Compound 117, 4-[8-({5-amino-7-[({spiro[2.3]hexan-5-yl}methyl)amino]-1H-pyrazolo[4,3-d]pyrimidin-1-yl}methyl)quinoline-5-carbonyl]piperazin-2-one]: the EC50 in the assay with CD69 turned out to be 266 nM; at human TLR7, 447 nM. In the same order, the values of `CCC[C@@H](CCO)Nc1nc(N)nc2cnn(Cc3ccc(C(=O)N4CC5(CNC5)C4)c4cccnc34)c12` [Compound 124, (3S)-3-({5-amino-1-[(5-{2,6-diazaspiro[3.3]heptane-2-carbonyl}quinolin-8-yl)methyl]-1H-pyrazolo[4,3-d]pyrimidin-7-yl}amino)hexan-1-ol] are 248 nM and 440 nM. For `CCCCNc1nc(N)nc2cnn(Cc3ccc(CNC4CCOCC4)c4cccnc34)c12` [Compound 109, N7-butyl-1-[(5-{[(oxan-4-yl)amino]methyl}quinolin-8-yl)methyl]-1H-pyrazolo[4,3-d]pyrimidine-5,7-diamine] the same measures were 41.5 nM and 55.2 nM.

For the molecule `CCC[C@@H](CCO)Nc1nc(N)nc2cnn(Cc3cccc4cccnc34)c12` [Compound 110, (3S)-3-({5-amino-1-[(quinolin-8-yl)methyl]-1H-pyrazolo[4,3-d]pyrimidin-7-yl}amino)hexan-1-ol], the results for the EC50 with CD69 and at human TLR7 were 729 nM and 287 nM, respectively.

Take `CCC[C@@H](CCO)Nc1nc(N)nc2cnn(Cc3ccc(C4CCN(C5CCOCC5)CC4)c4cccnc34)c12` [Compound 142, (3S)-3-{[5-amino-1-({5-[1-(oxan-4-yl)piperidin-4-yl]quinolin-8-yl}methyl)-1H-pyrazolo[4,3-d]pyrimidin-7-yl]amino}hexan-1-ol]: the EC50 on human TLR7 came to 8.6 nM.

Consider `CCC[C@@H](CCO)Nc1nc(N)nc2cnn(Cc3ccc(C(=O)N4CCNC(=O)C4)c4cccnc34)c12` [Compound 118, 4-{8-[(5-amino-7-{[(3S)-1-hydroxyhexan-3-yl]amino}-1H-pyrazolo[4,3-d]pyrimidin-1-yl)methyl]quinoline-5-carbonyl}piperazin-2-one], for which the EC50 came to 208 nM in the assay on CD69 and 311 nM at human TLR7.

Take `CCCCNc1nc(N)nc2cnn(Cc3ccc(CNC4CCC4)c4cccnc34)c12` [Compound 101, N7-butyl-1-({5-[(cyclobutylamino)methyl]quinolin-8-yl}methyl)-1H-pyrazolo[4,3-d]pyrimidine-5,7-diamine]: the EC50 worked out at 47.1 nM in the assay with CD69 and 93.3 nM on human TLR7. As to `CCC[C@@H](CCO)Nc1nc(N)nc2cnn(Cc3ccc(CN4CC5(CCOCC5)C4)c4cccnc34)c12` [Compound 106, (3S)-3-[(5-amino-1-{[5-({7-oxa-2-azaspiro[3.5]nonan-2-yl}methyl)quinolin-8-yl]methyl}-1H-pyrazolo[4,3-d]pyrimidin-7-yl)amino]hexan-1-ol], the EC50 with CD69 was 48.1 nM; at human TLR7 it was 19.3 nM. For `CCC[C@@H](CCO)Nc1nc(N)nc2cnn(Cc3ccc(C(=O)N4CCN(CCOC)CC4)c4cccnc34)c12` [Compound 131, (3S)-3-{[5-amino-1-({5-[4-(2-methoxyethyl)piperazine-1-carbonyl]quinolin-8-yl}methyl)-1H-pyrazolo[4,3-d]pyrimidin-7-yl]amino}hexan-1-ol], the EC50 in the assay on CD69 came to 91.9 nM. The same measure, in the same setting: in the case of `CCC[C@@H](CCO)Nc1nc(N)nc2cnn(Cc3ccc(C(=O)N4CC5(CN(C)C5)C4)c4cccnc34)c12` [Compound 130, (3S)-3-({5-amino-1-[(5-{6-methyl-2,6-diazaspiro[3.3]heptane-2-carbonyl}quinolin-8-yl)methyl]-1H-pyrazolo[4,3-d]pyrimidin-7-yl}amino)hexan-1-ol] it was 49.7 nM.

With `CCC[C@@H](CCO)Nc1nc(N)nc2cnn(Cc3ccc(C4CCN(C(C)C)CC4)c4cccnc34)c12` [Compound 143, (3S)-3-{[5-amino-1-({5-[1-(propan-2-yl)piperidin-4-yl]quinolin-8-yl}methyl)-1H-pyrazolo[4,3-d]pyrimidin-7-yl]amino}hexan-1-ol], the EC50 at human TLR7 was 6.1 nM.
